One may read the inhibition as the drop in the measured response relative to a control, in per cent.

Data on 29 compounds can be found in patent US8088763B2 (priority 2004, dated 2012).

The target of assay [1] is T1, 5HT-uptake (Rattus norvegicus, UniProt P31652).
T1 construct: synaptosomes were freshly isolated from areas of rats' brains
The experiment in a line: biochemical. The settings on record: for inhibition at 10 µM: read-out: 5HT-uptake [10 μM], % inhibition.

The target in assay [2] is NA-uptake (Rattus norvegicus, UniProt Q63380). The experiment in a line: biochemical. As to conditions: for inhibition at 10 µM: read-out: NA-uptake [10 μM], % inhibition.
NA-uptake, sequence (Q63380 1-617): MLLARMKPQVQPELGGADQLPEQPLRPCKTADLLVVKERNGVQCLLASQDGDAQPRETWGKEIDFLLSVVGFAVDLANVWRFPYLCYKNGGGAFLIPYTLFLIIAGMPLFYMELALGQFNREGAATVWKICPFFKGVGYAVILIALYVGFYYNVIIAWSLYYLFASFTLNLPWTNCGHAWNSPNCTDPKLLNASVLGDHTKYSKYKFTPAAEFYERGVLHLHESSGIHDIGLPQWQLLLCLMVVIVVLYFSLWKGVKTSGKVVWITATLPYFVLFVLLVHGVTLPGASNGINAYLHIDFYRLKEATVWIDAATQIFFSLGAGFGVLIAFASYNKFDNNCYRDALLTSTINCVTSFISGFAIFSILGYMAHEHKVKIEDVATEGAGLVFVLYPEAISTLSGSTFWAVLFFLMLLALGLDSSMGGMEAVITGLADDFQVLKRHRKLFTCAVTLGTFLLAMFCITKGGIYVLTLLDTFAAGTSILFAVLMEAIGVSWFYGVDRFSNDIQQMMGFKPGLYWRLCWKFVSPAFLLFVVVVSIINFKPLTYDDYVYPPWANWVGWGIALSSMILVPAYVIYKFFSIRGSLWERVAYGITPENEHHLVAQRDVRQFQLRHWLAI

T1 sequence (P31652 whole entry): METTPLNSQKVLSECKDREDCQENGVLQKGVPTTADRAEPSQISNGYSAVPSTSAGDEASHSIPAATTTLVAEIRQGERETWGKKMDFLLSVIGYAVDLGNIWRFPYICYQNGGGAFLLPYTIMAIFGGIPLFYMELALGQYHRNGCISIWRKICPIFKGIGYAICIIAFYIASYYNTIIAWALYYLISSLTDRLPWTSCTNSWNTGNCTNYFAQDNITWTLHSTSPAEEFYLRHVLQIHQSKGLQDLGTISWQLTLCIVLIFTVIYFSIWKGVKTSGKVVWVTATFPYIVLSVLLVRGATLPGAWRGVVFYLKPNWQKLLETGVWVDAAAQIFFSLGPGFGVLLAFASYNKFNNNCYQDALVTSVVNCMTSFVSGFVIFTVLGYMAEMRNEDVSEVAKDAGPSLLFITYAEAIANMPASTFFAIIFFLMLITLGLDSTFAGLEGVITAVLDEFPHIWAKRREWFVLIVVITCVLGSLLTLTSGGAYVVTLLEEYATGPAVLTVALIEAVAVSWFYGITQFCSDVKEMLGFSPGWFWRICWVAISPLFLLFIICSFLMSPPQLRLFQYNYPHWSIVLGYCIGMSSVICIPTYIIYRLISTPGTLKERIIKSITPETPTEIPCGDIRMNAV

In the case of `COc1ccc(F)c(CN2CCN(C(=O)CCCC(=O)NC3CCC(Cc4ccccc4)(N(C)C)CC3)CC2)c1` (stereo not shown) [Example 25, 5-[4-(2-fluoro-5-methoxy-benzyl)-piperazin-1-yl]-5-oxo-valeric acid (4-benzyl-4-dimethylamino-cyclohexyl)-amide], the inhibition at 10 µM was 97% in assay [1] and 95% in assay [2].
For `CN(C)C1(Cc2ccc(Cl)cc2)CCC(NC(=O)CCC(=O)NCc2cc(F)cc(F)c2)CC1` (stereo not shown) [Example 49, N-[4-(4-chloro-benzyl)-4-dimethylamino-cyclohexyl]-N′-(3,5-difluoro-benzyl)-succinamide], the inhibition at 10 µM in assay [1] amounted to 92%; in assay [2], 98%.
Regarding `Cc1ccc(CC2(N(C)C)CCC(NC(=O)CCC(=O)N3CC=CCC3)CC2)cc1` (stereo not shown) [Example 19, 4-(3,6-dihydro-2H-pyridin-1-yl)-N-[4-dimethylamino-4-(4-methyl-benzyl)-cyclohexyl]-4-oxo-butyramide], the inhibition at 10 µM in assay [1] is 93%; in assay [2] it was 74%.
In the case of `Cc1ccc(CC2(N(C)C)CCC(NC(=O)CCC(=O)NC(C)C(=O)OC(C)(C)C)CC2)cc1` (stereo not shown) [Example 61, 2-{3-[4-dimethylamino-4-(4-methyl-benzyl)-cyclohexylcarbamoyl]-propionylamino}-propanoic acid-tert-butylester], the inhibition at 10 µM in assay [1] worked out at 92%; in assay [2], 93%.
As to `COCCCNC(=O)CCC(=O)NC1CCC(Cc2ccc(Cl)cc2)(N(C)C)CC1` (stereo not shown) [Example 26, N-[4-(4-chloro-benzyl)-4-dimethylamino-cyclohexyl]-N′-(3-methoxy-propyl)-succinamide], the values for the inhibition at 10 µM in assay [1] and in assay [2] were 93% and 79%, respectively.
In the case of `CN(C)C1(Cc2cccc(Cl)c2)CCC(NC(=O)CCC(=O)NC2CCOC2=O)CC1` (stereo not shown) [Example 2, N-[4-(3-chloro-benzyl)-4-dimethylamino-cyclohexyl]-N′-(2-oxo-tetrahydro-furan-3-yl)-succinamide], the inhibition at 10 µM stood at 95% in assay [1] and 87% in assay [2].
In the case of `CC(CCc1ccccc1)NC(=O)CCC(=O)NC1CCC(Cc2ccc(Cl)cc2)(N(C)C)CC1` (stereo not shown) [Example 83, N-[4-(4-chloro-benzyl)-4-dimethylamino-cyclohexyl]-N′-(1-methyl-3-phenyl-propyl)-succinamide], the figures for the inhibition at 10 µM in assay [1] and in assay [2] were 93% and 105%, respectively.
On to `CN(C)C1(Cc2ccc(Cl)cc2)CCC(NC(=O)CCC(=O)N2CCN(C(=O)c3cccc(Cl)c3)CC2)CC1` (stereo not shown) [Example 134, 4-[4-(3-chloro-benzoyl)-piperazin-1-yl]-N-[4-(4-chloro-benzyl)-4-dimethylamino-cyclohexyl]-4-oxo-butyramide], for which the inhibition at 10 µM in assay [1] stood at 92%; in assay [2], 101%.
As for `CCC(NC(=O)CCC(=O)NC1CCC(Cc2ccc(Cl)cc2)(N(C)C)CC1)c1ccccc1` (stereo not shown) [Example 135, N-[4-(4-chloro-benzyl)-4-dimethylamino-cyclohexyl]-N′-(1-phenyl-propyl)-succinamide], the inhibition at 10 µM in assay [1] amounted to 92%; in assay [2], 96%.
Turning to `Cc1cccc(CC2(N(C)C)CCC(NC(=O)CCC(=O)N3CCN(C(=O)c4cccc(Cl)c4)CC3)CC2)c1` (stereo not shown) [Example 107, 4-[4-(3-chloro-benzoyl)-piperazin-1-yl]-N-[4-dimethylamino-4-(3-methyl-benzyl)-cyclohexyl]-4-oxo-butyramide], the figures for the inhibition at 10 µM in assay [1] and in assay [2] were 95% and 106%, respectively.
On the same counts, the results for `CN(C)C1(Cc2ccccc2)CCC(NC(=O)CCCC(=O)N2CCN(C3CCCCCC3)CC2)CC1` (stereo not shown) [Example 62, 5-(4-cycloheptyl-piperazin-1-yl)-5-oxo-valeric acid (4-benzyl-4-dimethylamino-cyclohexyl)-amide] are 100% and 86%.
On to `Cc1cccc(CC2(N(C)C)CCC(NC(=O)CCC(=O)N3CCC(C)CC3)CC2)c1` (stereo not shown) [Example 20, N-[4-dimethylamino-4-(3-methyl-benzyl)-cyclohexyl]-4-(4-methyl-piperidin-1-yl)-4-oxo-butyramide], for which the inhibition at 10 µM was 92% in assay [1] and 90% in assay [2].
For `CN(Cc1cccnc1)C(=O)CCC(=O)NC1CCC(Cc2ccc(Cl)cc2)(N(C)C)CC1` (stereo not shown) [Example 72, N-[4-(4-chloro-benzyl)-4-dimethylamino-cyclohexyl]-N′-methyl-N′-pyridin-3-ylmethyl-succinamide] the same measures were 95% and 70%.
For `C=CCN(C)C(=O)CCC(=O)NC1CCC(Cc2ccc(Cl)cc2)(N(C)C)CC1` (stereo not shown) [Example 17, N-allyl-N′-[4-(4-chloro-benzyl)-4-dimethylamino-cyclohexyl]-N-methyl-succinamide], the results for the inhibition at 10 µM in assay [1] and in assay [2] were 93% and 82%, respectively.
For `Cc1ccc(CC2(N(C)C)CCC(NC(=O)CCC(=O)N3CCN(c4ccc(Cl)cc4)CC3)CC2)cc1` (stereo not shown) [Example 96, 4-[4-(4-chloro-phenyl)-piperazin-1-yl]-N-[4-dimethylamino-4-(4-methyl-benzyl)-cyclohexyl]-4-oxo-butyramide] the same measures were 94% and 87%.
`CCOP(=O)(Cc1ccc(NC(=O)CCC(=O)NC2CCC(Cc3cccc(C)c3)(N(C)C)CC2)cc1)OCC` (stereo not shown) [Example 46, (4-{3-[4-dimethylamino-4-(3-methyl-benzyl)-cyclohexylcarbamoyl]-propionylamino}-benzyl)-phosphonic acid diethylester]: the values for the inhibition at 10 µM in assay [1] and in assay [2] were 92% and 89%, respectively.
Take `CCOC(=O)N1CCN(C(=O)CCC(=O)NC2CCC(Cc3cccc(Cl)c3)(N(C)C)CC2)CC1` (stereo not shown) [Example 84, 4-{3-[4-(3-chloro-benzyl)-4-dimethylamino-cyclohexylcarbamoyl]-propionyl}-piperazin-1-carboxylic acid ethylester]: the inhibition at 10 µM in assay [1] was found to be 95%; in assay [2] it was 96%.
Take `CN(C)C1(Cc2cccc(Cl)c2)CCC(NC(=O)CCC(=O)N2CCC3(CC2)C(=O)NCN3c2ccccc2)CC1` (stereo not shown) [Example 114, N-[4-(3-chloro-benzyl)-4-dimethylamino-cyclohexyl]-4-oxo-4-(4-oxo-1-phenyl-1,3,8-triaza-spiro[4.5]dec-8-yl)-butyramide]: the inhibition at 10 µM was found to be 99% in assay [1] and 106% in assay [2].
As for `Cc1ccc(CC2(N(C)C)CCC(NC(=O)CCC(=O)NC3CCN(Cc4c(Cl)cccc4Cl)C3)CC2)cc1` (stereo not shown) [Example 1, N-[1-(2,6-dichloro-benzyl)-pyrrolidin-3-yl]-N′-[4-dimethylamino-4-(4-methyl-benzyl)-cyclohexyl]-succinamide], the inhibition at 10 µM in assay [1] came to 93%; in assay [2], 71%.
With “Glutaric acid-(4-benzyl-4-dimethylamino- cyclohexyl)-amide 4-dimethylamino- benzylamide [Example 81]”, the “5HT-uptake [10 μM], % inhibition” value in assay [1] is listed as 92%. In addition, the “NA-uptake [10 μM], % inhibition” value in assay [2] is given as 91%.
Take `CN(C)C1(Cc2cccc(Cl)c2)CCC(NC(=O)CCC(=O)NCC2CCCO2)CC1` (stereo not shown) [Example 29, N-[4-(3-chloro-benzyl)-4-dimethylamino-cyclohexyl]-N′-(tetrahydro-furan-2-ylmethyl)-succinamide]: the inhibition at 10 µM in assay [1] amounted to 94%; in assay [2] it was 91%.
`Cc1ccc(CCNC(=O)CCC(=O)NC2CCC(Cc3ccc(C)cc3)(N(C)C)CC2)cc1` (stereo not shown) [Example 168, N-[4-dimethylamino-4-(4-methyl-benzyl)-cyclohexyl]-N′-(2-p-tolyl-ethyl)-succinamide]: the inhibition at 10 µM in assay [1] was determined as 92%; in assay [2] it was 96%.
For the compound `CCOC(=O)CCNC(=O)CCC(=O)NC1CCC(Cc2ccc(C)cc2)(N(C)C)CC1` (stereo not shown) [Example 9, 3-{3-[4-dimethylamino-4-(4-methyl-benzyl)-cyclohexylcarbamoyl]-propionylamino}-propanoic acid ethylester], the inhibition at 10 µM was found to be 93% in assay [1] and 91% in assay [2].
In the case of `CN(C)C1(Cc2ccc(Cl)cc2)CCC(NC(=O)CCC(=O)N2CCSCC2)CC1` (stereo not shown) [Example 13, N-[4-(4-chloro-benzyl)-4-dimethylamino-cyclohexyl]-4-oxo-4-thiomorpholin-4-yl-butyramide], the inhibition at 10 µM stood at 92% in assay [1] and 72% in assay [2].
On to `CN(C)C1(Cc2ccc(Cl)cc2)CCC(NC(=O)CCC(=O)N2CC=CCC2)CC1` (stereo not shown) [Example 5, N-[4-(4-chloro-benzyl)-4-dimethylamino-cyclohexyl]-4-(3,6-dihydro-2H-pyridin-1-yl)-4-oxo-butyramide], for which the inhibition at 10 µM in assay [1] stood at 93%; in assay [2] it was 80%.
As for `Cc1ccc(CC2(N(C)C)CCC(NC(=O)CCC(=O)NC3CCCc4ccccc43)CC2)cc1` (stereo not shown) [Example 126, N-[4-dimethylamino-4-(4-methyl-benzyl)-cyclohexyl]-N′-(1,2,3,4-tetrahydro-naphthalen-1-yl)-succinamide], the values for the inhibition at 10 µM in assay [1] and in assay [2] were 93% and 84%, respectively.
In the case of `C=CCN(C)C(=O)CCC(=O)NC1CCC(Cc2cccc(Cl)c2)(N(C)C)CC1` (stereo not shown) [Example 43, N-allyl-N′-[4-(3-chloro-benzyl)-4-dimethylamino-cyclohexyl]-N-methyl-succinamide], the inhibition at 10 µM in assay [1] stood at 98%; in assay [2], 96%.
Take `CC(=O)c1ccc(N2CCN(C(=O)CCC(=O)NC3CCC(Cc4ccc(C)cc4)(N(C)C)CC3)CC2)cc1` (stereo not shown) [Example 27, 4-[4-(4-Acetyl-phenyl)-piperazin-1-yl]-N-[4-dimethylamino-4-(4-methyl-benzyl)-cyclohexyl]-4-oxo-butyramide]: the results for the inhibition at 10 µM in assay [1] and in assay [2] were 95% and 92%, respectively.
With `CN(C)C1(Cc2cccc(Cl)c2)CCC(NC(=O)CCC(=O)NCc2ccccn2)CC1` (stereo not shown) [Example 73, N-[4-(3-chloro-benzyl)-4-dimethylamino-cyclohexyl]-N′-pyridin-2-ylmethyl-succinamide], the inhibition at 10 µM was found to be 93% in assay [1] and 87% in assay [2].
